Counter-ions that a name gives are not always drawn.
biological target: T1, HCV NS3 protease (full length NS34a) (Hepatitis C virus genotype 1b, UniProt P26663); test: HCV NS3 protease assay (FRET, full length NS34a); type: biochemical; conditions: IC50 values of 10-150 μM against the protease activity of the full length NS34a, or at least 40% inhibition of protease activity at a concentration of 100 μM
T1 construct: The protease activity of the full length NS34a was measured using a FRET-based assay; made in house
T1 sequence (P26663 1658-1711): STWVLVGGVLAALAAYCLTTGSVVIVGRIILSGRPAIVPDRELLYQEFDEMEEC
T1 sequence (P26663 1027-1657): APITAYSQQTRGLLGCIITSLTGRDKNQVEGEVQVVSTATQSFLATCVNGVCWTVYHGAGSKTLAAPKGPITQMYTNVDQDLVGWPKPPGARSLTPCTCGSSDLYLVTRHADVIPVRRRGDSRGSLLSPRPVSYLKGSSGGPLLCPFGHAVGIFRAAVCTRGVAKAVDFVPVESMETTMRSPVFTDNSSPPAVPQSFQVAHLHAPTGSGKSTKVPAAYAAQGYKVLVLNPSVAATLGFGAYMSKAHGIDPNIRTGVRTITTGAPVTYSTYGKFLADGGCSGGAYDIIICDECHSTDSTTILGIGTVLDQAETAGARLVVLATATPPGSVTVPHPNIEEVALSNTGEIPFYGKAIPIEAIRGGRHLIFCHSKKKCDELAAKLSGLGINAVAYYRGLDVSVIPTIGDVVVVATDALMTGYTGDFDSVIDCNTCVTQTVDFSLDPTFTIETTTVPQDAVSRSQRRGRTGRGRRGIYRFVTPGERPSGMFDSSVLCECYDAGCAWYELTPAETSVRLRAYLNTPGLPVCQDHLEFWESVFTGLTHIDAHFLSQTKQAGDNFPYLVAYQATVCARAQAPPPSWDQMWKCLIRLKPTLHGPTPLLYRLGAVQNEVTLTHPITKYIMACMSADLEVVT
Experimental: The HCV NS3 protease functions have been extensively studied and are considered as potential targets for antiviral therapy: see for example the many references listed in the introductory section of this application. Therefore, the activity of the compounds of the invention as anti-HCV agents was assessed using a full length HCV NS3 protease.
The protease activity of the full length NS34a was measured using a FRET-based assay utilizing a peptide substrate derived from the NS4AB cleavage site (Anaspec) and labelled at one end with a quencher (QXL520) and at the other with a fluorophore (5-FAMsp). NS34a (produced in-house by literature methods) was incubated with test compounds and peptide substrate in 50 mM Tris pH8, 20 mM DTT, 1% CHAPS, 10% glycerol and 5% DMSO. The reaction was followed by monitoring the change in fluorescence on a Molecular Devices Gemini plate reader for 30 minutes at room temperature. Initial rates were calculated from the progress curves using SoftMax Pro (Molecular Devices). IC50 values were then calculated from replicate curves using Prism GraphPad software.

Compound | IC50 [µM]
CC[C@@H](N[C@@H](CC(N)=O)C(C)C)c1ccc(Cl)c(Oc2ccccc2)c1F [Example 142] | 10 to 150
CC[C@@H](N)c1ccc(Cl)c(Oc2ccc(Cl)nn2)c1F [Example 153] | 10 to 150
CC[C@@H](N[C@@H](C)CC(=O)NCC(=O)OC)c1ccc(Cl)c(Oc2ccccc2)c1F [Example 159] | 10 to 150
CC[C@@H](N[C@H](C)CC(=O)N(C)OC)c1ccc(Cl)c(Oc2ccccc2)c1F [Example 160] | 10 to 150
CC[C@@H](N[C@@H](C)CC(=O)N(C)OC)c1ccc(Cl)c(Oc2ccccc2)c1F [Example 161] | 10 to 150
CC[C@@H](N)c1ccc(Cl)c(Oc2ccc(C(F)(F)F)cc2)c1F [Example 175] | 10 to 150
CC[C@@H](N[C@H](C)CC(=O)NCC(N)=O)c1ccc(Cl)c(Oc2ccccc2)c1F [Example 177] | 10 to 150
CC[C@@H](N)c1ccc(Cl)c(Oc2cccc(C(=O)NCCC#N)c2)c1F [Example 191] | 10 to 150
CC[C@@H](N[C@H](C)CC(=O)N[C@@H](C)CO)c1ccc(Cl)c(Oc2ccccc2)c1F [Example 205] | 10 to 150
CC[C@@H](N[C@@H](C)CC(=O)N[C@@H](C)CO)c1ccc(Cl)c(Oc2ccccc2)c1F [Example 206] | 10 to 150

same assay, conditions: protease activity of full length NS34a, FRET peptide substrate; read-out: Activity IC50

Compound | IC50 [µM]
CC[C@H](N)c1ccc(Cl)c(Oc2cccc(C(=O)N(C)Cc3cn[nH]c3)c2)c1F [Example 141, 3-[3-((S)-1-Amino-propyl)-6-chloro-2-fluoro-phenoxy]-N-methyl-N-(1H-pyrazol-4-ylmethyl)-benzamide.hydrochloride] | 2.8
CC[C@H](Nc1ccncc1)c1ccc(F)c(Oc2ccccc2)c1F [Example 144, [(S)-1-(2,4-Difluoro-3-phenoxy-phenyl)-propyl]-pyridin-4-yl-amine. hydrochloride] | 0.4
CC[C@@H](N[C@H](C)CC(=O)NCCO)c1ccc(Cl)c(Oc2ccccc2)c1F [Example 146] | 3.1
CC[C@@H](N[C@@H](C)CC(=O)NCCO)c1ccc(Cl)c(Oc2ccccc2)c1F [Example 147] | 0.11
CC[C@@H](N[C@@H](C)c1[nH]cnc1C)c1ccc(Cl)c(Oc2ccccc2)c1F [Example 148] | 1.7
CC[C@@H](N)c1ccc(Cl)c(Oc2cccc(F)c2)c1F [Example 149] | 3
CC[C@@H](N)c1ccc(Cl)c(Oc2ccc(F)cc2)c1F [Example 150] | 2
CC[C@@H](N)c1ccc(Cl)c(Oc2cccc(NS(C)(=O)=O)c2)c1F [Example 151] | 3.1
CC[C@@H](N)c1ccc(Cl)c(Oc2cccc([N+](=O)[O-])c2)c1F [Example 152] | 6.9
CC[C@@H](N)c1ccc(Cl)c(Oc2ccc(N)cn2)c1F [Example 156, 6-[3-((R)-1-Amino-propyl)-6-chloro-2-fluoro-phenoxy]-pyridin-3-ylamine.dihydrochloride] | 6.2
CC[C@@H](N)c1ccc(Cl)c(Oc2cccc(CNS(C)(=O)=O)c2)c1F [Example 157] | 2.1
CC[C@@H](N)c1ccc(Cl)c(Oc2ccc(C#N)cc2)c1F [Example 158] | 0.42
CC[C@@H](N)c1ccc(Cl)c(Oc2cccc(C(F)(F)F)c2)c1F [Example 162] | 6.8
CC[C@@H](N)c1ccc(Cl)c(Oc2ccc(C#N)c(F)c2)c1F [Example 166] | 2.1
CC[C@@H](N)c1ccc(Cl)c(Oc2ccnc(Cl)c2)c1F [Example 167] | 6.1
CC[C@@H](N)c1ccc(Cl)c(Oc2ccnc(C)c2)c1F [Example 168] | 3.7
CC[C@@H](N)c1ccc(Cl)c(Oc2ccncc2)c1F [Example 169] | 4.8
CC[C@@H](N)c1ccc(Cl)c(Oc2cccc(S(C)(=O)=O)c2)c1F [Example 170] | 2.3
CC[C@@H](N)c1ccc(Cl)c(Oc2cccc(NC(=O)NCC(F)(F)F)c2)c1F [Example 171, 1-{3-[3-((R)-1-Amino-propyl)-6-chloro-2-fluoro-phenoxy]-phenyl}-3-(2,2,2-trifluoro-ethyl)-urea.hydrochloride] | 7.7
CC[C@@H](N)c1ccc(Cl)c(Oc2cccc(C(N)=O)c2)c1F [Example 172] | 3.7
CC[C@@H](N)c1ccc(Cl)c(Oc2cccc(CNC(C)=O)c2)c1F [Example 173] | 3.5
CC[C@@H](N)c1ccc(Cl)c(Oc2ccc(S(C)(=O)=O)cc2)c1F [Example 174] | 6.2

Compound | IC50 [µM]
CC[C@@H](N)c1ccc(Cl)c(Oc2ccc(Cl)cc2)c1F [Example 176] | 1.7
CC[C@@H](N)c1ccc(Cl)c(Oc2ccc(CC#N)cc2)c1F [Example 179] | 0.61
CC[C@@H](N)c1ccc(Cl)c(Oc2ccc(C)nc2)c1F [Example 180] | 3.7
CC[C@@H](N)c1ccc(Cl)c(Oc2ccc(-c3nnc(C)o3)cc2)c1F [Example 181] | 2.3
CC[C@@H](N)c1ccc(Cl)c(Oc2ccc(N(C)C)cc2)c1F [Example 182] | 5.7
CC[C@@H](N)c1ccc(Cl)c(Oc2ccc(CO)cc2)c1F [Example 183] | 1.2
CC[C@@H](N)c1ccc(Cl)c(Oc2ccc(C(C)OC)cc2)c1F (stereo partly drawn) [Example 184] | 6.1
CC[C@@H](N[C@H](C)CC(N)=O)c1ccc(Cl)c(Oc2ccc(C#N)cc2)c1F [Example 185] | 1.5
CCc1ccc(Oc2c(Cl)ccc([C@H](N)CC)c2F)cc1 [Example 187] | 6.9
CC[C@@H](N)c1ccc(Cl)c(Oc2ccc(C(C)O)cc2)c1F (stereo partly drawn) [Example 188] | 2.7
CC[C@@H](N)c1ccc(Cl)c(Oc2ccc(S(=O)(=O)NC)cc2)c1F [Example 189] | 8.6
CC[C@@H](N)c1ccc(Cl)c(Oc2ccc(F)c(COC(=O)NCC3CC3)c2)c1F [Example 190, Cyclopropylmethyl-carbamic acid 5-[3-((R)-1-amino-propyl)-6-chloro-2-fluoro-phenoxy]-2-fluoro-benzyl ester.hydrochloride] | 1.8
CC[C@@H](N)c1ccc(Cl)c(Oc2ccc(C3(C#N)CC3)cc2)c1F [Example 192] | 3.1
CC[C@@H](N)c1ccc(Cl)c(Oc2ccc3c(c2)CCO3)c1F [Example 193] | 0.96
CC[C@@H](N)c1ccc(Cl)c(Oc2ccc(C3(CO)CC3)cc2)c1F [Example 194] | 3.1
CC[C@@H](N)c1ccc(Cl)c(Oc2ccc([N+](=O)[O-])cc2)c1F [Example 197] | 2.6
CC[C@@H](N)c1ccc(Cl)c(Oc2ccc(CNC(C)=O)cc2)c1F [Example 198] | 1.6
CC[C@@H](N)c1ccc(Cl)c(Oc2cccc(C#N)c2)c1F [Example 199] | 3.8
CC[C@@H](N[C@H](C)CC(N)=O)c1ccc(Cl)c(Oc2ccc([N+](=O)[O-])cc2)c1F [Example 202] | 5.4
CC[C@@H](N)c1ccc(Cl)c(Oc2ccc(-c3cnco3)cc2)c1F [Example 203, (R)-1-[4-Chloro-2-fluoro-3-(4-oxazol-5-yl-phenoxy)-phenyl]-propylamine.hydrochloride] | 1.6
CC[C@@H](N)c1ccc(Cl)c(Oc2ccc(/C=N/O)cc2)c1F [Example 204, 4-[3-((R)-1-Amino-propyl)-6-chloro-2-fluoro-phenoxy]-benzaldehyde oxime.hydrochloride] | 0.72
CC[C@@H](N[C@H](C)CC(=O)N[C@H](C)CO)c1ccc(Cl)c(Oc2ccccc2)c1F [Example 208] | 3.4

From patent publication US20140288040A1, “SUBSTITUTED BENZYLAMINE COMPOUNDS, THEIR USE IN MEDICINE, AND IN PARTICULAR THE TREATMENT OF HEPATITIS C VIRUS (HCV) INFECTION” (ASTEX THERAPEUTICS LIMITED, priority 2011, published 2014)
